Source: patent US12297194B2, “N2-phenylpyrimidine-2,4-diamine compounds, and preparation methods and methods of use thereof” (BRIDGE BIOTHERAPEUTICS, INC., priority 2021, dated 2025)

Columns and labels:
Type in all cases: cell-based, murine
[1] = target: Ba/F3 EGFR Del19/T790M/C797S mutants (Homo sapiens, UniProt P00533, T790M/C797S, cells depend on it, form not given); test: CellTiter-Glo cell viability, Ba/F3 EGFR Del19/T790M/C797S cells; settings: 72 hours, read-out: Ba/F3 EGFR mutant cell (IC50, nM) D/T/C
Protocol: (§1) In order to evaluate an inhibitory ability on wild-type Ba/F3 EGFR and Ba/F3 EGFR mutations in Ba/F3 cell lines by the compounds of Formula 1, the experiment was carried out as described below.
(§2) The measurement of activities on Ba/F3 cells harboring wild-type EGFR and EGFR mutants by the compounds of the present invention were determined utilizing the CELLTITER-GLO™ system from Promega, as follows. The CELLTITER-GLO™ assay is a method for measuring the ATP present in cells to determine the cell viability. Ba/F3 EGFR wild-type and Ba/F3 EGFR L858R/C797S (L/C), Ba/F3 EGFR L858R/T790M/C797S (L/T/C), Ba/F3 EGFR Del19/T790M (D/T), Ba/F3 EGFR Del19/C797S (D/C), Ba/F3 EGFR Del19/T790M/C797S (D/T/C) mutant cell lines were maintained in RPMI1640, containing […], 1% penicillin-streptomycin, […] puromycin. Cells were grown in a humidified incubator at 37° C. with […].
(§3) The analysis of an EGFR inhibitory activity by the compounds was carried out in accordance with the analysis reaction recipe below.
(§4) 2500 cells/90 μL were seeded in 96 well cell culture plate, and after 24 hours, treated with the compounds represented by Formula 1 in concentrations of 0, 0.3, 0.9, 2.7, 8.2, 24.7, 74.1, 222.2, 666.7, 2000 (nM). After the reaction of 72 hours, the plate was incubated for 30 minutes at ambient temperature, and then, was further treated with 100 μL of the CELLTITER-GLO™ reagent and was shaken for 10 minutes at ambient temperature. Finally, measurement of the luminescence values were obtained using the SPECTRAMAX™ iD3 (Molecular Devices), and the IC50 values of the compound were analyzed using the GraphPad Prism program (version 9.0.2, GraphPad Software, Inc.).

Ba/F3 EGFR Wild-type = Ba/F3 EGFR Wild-type (Homo sapiens, UniProt P00533); test: CellTiter-Glo cell viability, Ba/F3 EGFR wild-type cells; settings: 72 hours, read-out: Ba/F3 EGFR mutant cell (IC50, nM) WT
Protocol: as §1, §2, §3, §4

[2] = target: Ba/F3 EGFR L858R/C797S mutants (Homo sapiens, UniProt P00533, C797S/L858R, cells depend on it); test: CellTiter-Glo cell viability, Ba/F3 EGFR L858R/C797S cells; settings: 72 hours, read-out: Ba/F3 EGFR mutant cell (IC50, nM) L/C
Protocol: as §1, §2, §3, §4

[3] = target: Ba/F3 EGFR L858R/T790M/C797S mutants (Homo sapiens, UniProt P00533, T790M/C797S/L858R, cells depend on it); test: CellTiter-Glo cell viability, Ba/F3 EGFR L858R/T790M/C797S cells; settings: 72 hours, read-out: Ba/F3 EGFR mutant cell (IC50, nM) L/T/C
Protocol: as §1, §2, §3, §4

[4] = target: Ba/F3 EGFR Del19/T790M mutants (Homo sapiens, UniProt P00533, T790M, cells depend on it, form not given); test: CellTiter-Glo cell viability, Ba/F3 EGFR Del19/T790M cells; settings: 72 hours, read-out: Ba/F3 EGFR mutant cell (IC50, nM) D/T
Protocol: as §1, §2, §3, §4

[5] = target: Ba/F3 EGFR Del19/C797S mutants (Homo sapiens, UniProt P00533, C797S, cells depend on it, form not given); test: CellTiter-Glo cell viability, Ba/F3 EGFR Del19/C797S cells; settings: 72 hours, read-out: Ba/F3 EGFR mutant cell (IC50, nM) D/C
Protocol: as §1, §2, §3, §4

Chain of Ba/F3 EGFR Del19/C797S mutants (P00533 with tags, fused parts or gaps DEL746-750/C797S, form open): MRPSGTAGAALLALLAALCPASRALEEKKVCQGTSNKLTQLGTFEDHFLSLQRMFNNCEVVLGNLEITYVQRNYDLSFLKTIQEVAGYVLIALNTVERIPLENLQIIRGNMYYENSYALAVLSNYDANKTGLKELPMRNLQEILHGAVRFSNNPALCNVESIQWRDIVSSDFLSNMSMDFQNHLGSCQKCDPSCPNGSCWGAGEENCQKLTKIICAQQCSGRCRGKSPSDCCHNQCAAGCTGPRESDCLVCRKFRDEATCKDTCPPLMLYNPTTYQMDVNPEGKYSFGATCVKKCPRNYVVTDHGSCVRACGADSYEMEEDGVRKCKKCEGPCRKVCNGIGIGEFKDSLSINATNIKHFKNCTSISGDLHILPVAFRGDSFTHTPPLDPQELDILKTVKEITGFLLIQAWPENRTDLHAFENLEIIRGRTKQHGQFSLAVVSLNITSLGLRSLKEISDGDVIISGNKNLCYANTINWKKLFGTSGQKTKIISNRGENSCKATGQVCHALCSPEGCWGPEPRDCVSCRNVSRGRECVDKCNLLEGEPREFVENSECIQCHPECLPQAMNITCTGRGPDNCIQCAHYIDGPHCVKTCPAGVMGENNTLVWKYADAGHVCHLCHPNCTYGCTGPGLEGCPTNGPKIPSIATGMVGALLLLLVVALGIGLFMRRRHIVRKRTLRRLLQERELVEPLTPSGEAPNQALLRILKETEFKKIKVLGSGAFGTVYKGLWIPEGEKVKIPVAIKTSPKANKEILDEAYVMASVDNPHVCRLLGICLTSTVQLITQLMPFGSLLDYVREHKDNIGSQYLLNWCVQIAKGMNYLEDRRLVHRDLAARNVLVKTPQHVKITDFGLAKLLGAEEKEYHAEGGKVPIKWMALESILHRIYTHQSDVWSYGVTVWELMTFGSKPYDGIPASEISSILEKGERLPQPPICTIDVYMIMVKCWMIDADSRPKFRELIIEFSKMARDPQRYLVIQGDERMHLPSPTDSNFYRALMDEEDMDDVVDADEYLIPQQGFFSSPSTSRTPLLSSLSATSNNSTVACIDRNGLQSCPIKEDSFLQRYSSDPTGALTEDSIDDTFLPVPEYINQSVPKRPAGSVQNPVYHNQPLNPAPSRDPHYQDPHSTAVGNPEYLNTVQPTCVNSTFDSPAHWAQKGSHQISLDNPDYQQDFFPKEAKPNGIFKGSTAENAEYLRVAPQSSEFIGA
Chain of Ba/F3 EGFR L858R/C797S mutants (P00533 whole entry C797S/L858R): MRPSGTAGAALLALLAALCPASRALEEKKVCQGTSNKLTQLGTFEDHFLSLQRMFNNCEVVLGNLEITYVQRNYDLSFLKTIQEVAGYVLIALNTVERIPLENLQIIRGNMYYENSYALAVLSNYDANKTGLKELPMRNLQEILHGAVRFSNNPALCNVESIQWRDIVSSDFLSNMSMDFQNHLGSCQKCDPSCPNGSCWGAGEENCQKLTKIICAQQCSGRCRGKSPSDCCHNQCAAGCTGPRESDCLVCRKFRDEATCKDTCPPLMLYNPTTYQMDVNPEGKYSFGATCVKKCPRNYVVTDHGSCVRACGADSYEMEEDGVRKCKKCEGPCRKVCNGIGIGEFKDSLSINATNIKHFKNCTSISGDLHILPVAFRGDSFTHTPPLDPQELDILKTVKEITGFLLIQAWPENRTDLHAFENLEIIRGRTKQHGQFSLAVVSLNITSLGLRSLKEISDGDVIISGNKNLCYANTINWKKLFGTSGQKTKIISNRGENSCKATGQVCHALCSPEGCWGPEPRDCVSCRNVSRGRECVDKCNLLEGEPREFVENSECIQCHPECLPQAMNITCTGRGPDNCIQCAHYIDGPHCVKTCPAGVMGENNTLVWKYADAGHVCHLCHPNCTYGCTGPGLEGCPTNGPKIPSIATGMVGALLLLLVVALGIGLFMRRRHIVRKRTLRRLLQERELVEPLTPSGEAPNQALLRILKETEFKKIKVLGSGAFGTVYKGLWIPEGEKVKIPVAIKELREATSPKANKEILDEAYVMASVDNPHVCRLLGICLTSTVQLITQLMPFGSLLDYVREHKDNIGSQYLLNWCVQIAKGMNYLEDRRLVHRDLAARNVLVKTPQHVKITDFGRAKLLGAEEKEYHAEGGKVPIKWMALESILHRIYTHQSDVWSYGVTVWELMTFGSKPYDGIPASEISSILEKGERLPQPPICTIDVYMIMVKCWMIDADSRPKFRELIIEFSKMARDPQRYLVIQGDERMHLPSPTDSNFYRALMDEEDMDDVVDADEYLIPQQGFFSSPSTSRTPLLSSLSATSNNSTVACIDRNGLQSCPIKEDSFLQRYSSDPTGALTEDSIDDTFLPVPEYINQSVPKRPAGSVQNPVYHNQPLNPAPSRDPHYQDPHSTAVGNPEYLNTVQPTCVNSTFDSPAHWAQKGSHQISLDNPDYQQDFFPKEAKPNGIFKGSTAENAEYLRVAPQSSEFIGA
Chain of Ba/F3 EGFR Wild-type (P00533 whole entry, change not shown): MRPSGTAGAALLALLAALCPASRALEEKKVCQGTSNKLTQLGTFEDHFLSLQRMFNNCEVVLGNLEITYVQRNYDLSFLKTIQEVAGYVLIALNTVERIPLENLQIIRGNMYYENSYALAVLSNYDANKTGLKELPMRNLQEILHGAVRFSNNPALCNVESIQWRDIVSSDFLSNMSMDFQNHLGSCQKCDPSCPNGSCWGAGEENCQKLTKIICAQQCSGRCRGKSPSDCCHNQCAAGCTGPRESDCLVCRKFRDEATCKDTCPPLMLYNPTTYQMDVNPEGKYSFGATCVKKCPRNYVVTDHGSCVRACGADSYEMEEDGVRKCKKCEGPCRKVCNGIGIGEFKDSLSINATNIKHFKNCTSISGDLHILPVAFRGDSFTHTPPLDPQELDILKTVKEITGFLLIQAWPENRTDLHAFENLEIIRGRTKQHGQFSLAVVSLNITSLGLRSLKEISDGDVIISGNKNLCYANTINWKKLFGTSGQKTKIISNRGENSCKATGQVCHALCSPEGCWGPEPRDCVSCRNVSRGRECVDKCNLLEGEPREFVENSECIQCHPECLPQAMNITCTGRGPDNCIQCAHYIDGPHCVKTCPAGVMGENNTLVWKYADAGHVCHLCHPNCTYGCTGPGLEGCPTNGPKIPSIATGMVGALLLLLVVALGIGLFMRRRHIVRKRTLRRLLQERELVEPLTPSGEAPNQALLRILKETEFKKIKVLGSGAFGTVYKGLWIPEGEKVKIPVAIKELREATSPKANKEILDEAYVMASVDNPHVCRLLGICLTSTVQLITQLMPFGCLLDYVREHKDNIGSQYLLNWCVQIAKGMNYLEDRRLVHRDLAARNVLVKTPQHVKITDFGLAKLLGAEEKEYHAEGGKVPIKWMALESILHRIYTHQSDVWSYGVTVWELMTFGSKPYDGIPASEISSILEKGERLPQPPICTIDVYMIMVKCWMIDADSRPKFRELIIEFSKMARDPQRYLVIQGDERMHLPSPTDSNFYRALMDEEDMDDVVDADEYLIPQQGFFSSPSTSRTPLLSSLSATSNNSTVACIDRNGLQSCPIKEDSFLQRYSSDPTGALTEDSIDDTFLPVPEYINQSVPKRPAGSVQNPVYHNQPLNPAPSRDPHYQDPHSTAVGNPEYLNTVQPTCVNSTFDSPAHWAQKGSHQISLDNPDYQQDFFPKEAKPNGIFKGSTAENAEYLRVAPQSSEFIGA
Chain of Ba/F3 EGFR Del19/T790M mutants (P00533 with tags, fused parts or gaps DEL746-750/T790M, form open): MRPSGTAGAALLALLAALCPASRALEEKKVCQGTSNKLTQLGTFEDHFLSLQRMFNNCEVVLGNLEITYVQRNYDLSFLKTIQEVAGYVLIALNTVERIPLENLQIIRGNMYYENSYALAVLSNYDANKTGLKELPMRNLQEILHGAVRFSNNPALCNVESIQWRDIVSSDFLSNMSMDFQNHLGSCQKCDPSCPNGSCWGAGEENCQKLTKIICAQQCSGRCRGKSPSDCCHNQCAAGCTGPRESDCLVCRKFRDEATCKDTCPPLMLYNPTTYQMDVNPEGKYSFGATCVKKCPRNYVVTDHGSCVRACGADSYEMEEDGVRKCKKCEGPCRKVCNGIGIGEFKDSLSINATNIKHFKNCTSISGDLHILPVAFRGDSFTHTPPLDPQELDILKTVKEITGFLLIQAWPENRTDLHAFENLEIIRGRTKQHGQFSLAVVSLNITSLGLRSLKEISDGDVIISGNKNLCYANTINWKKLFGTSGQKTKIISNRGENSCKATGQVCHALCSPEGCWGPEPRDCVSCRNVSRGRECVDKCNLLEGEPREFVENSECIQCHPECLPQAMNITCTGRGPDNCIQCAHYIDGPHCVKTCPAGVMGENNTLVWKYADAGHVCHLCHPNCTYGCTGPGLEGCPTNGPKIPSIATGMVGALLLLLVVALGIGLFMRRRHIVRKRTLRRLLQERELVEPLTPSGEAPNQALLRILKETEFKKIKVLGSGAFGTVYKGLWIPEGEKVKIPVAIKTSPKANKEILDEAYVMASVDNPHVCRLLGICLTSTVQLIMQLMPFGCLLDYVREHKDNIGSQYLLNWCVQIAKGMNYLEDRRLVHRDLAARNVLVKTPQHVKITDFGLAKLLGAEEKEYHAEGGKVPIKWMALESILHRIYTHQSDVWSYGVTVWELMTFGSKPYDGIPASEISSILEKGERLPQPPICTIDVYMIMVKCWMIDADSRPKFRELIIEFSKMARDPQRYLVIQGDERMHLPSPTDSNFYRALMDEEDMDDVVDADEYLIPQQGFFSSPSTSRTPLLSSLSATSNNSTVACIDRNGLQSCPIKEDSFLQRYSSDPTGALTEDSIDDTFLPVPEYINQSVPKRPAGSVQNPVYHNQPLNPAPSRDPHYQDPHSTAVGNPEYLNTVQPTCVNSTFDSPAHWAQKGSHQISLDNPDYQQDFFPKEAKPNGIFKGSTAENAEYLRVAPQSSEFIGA

CCc1cc(Nc2ncc(Cl)c(Nc3ccc4nccnc4c3NS(C)(=O)=O)n2)c(OC)cc1N1CCC(N2CCOCC2)CC1 [Example A29, N-(6-((5-chloro-2-((5-ethyl-2-methoxy-4-(4-morpholinopiperidin-1-yl)phenyl)amino)pyrimidin-4-yl)amino)quinoxalin-5-yl)methanesulfonamide]
GI50 [1]: 69 nM | GI50 (Ba/F3 EGFR Wild-type): 200 nM | GI50 [2]: 79 nM | GI50 [3]: 25 nM | GI50 [4]: 13 nM | GI50 [5]: 27 nM

COc1cc(N2CCC(N3CCCC3)CC2)c(C)cc1Nc1ncc(Cl)c(Nc2ccc3nccnc3c2NS(C)(=O)=O)n1 [Example A30, N-(6-((5-chloro-2-((2-methoxy-5-methyl-4-(4-(pyrrolidin-1-yl)piperidin-1-yl)phenyl)amino)pyrimidin-4-yl)amino)quinoxalin-5-yl)methanesulfonamide]
GI50 [1]: 100 nM | GI50 (Ba/F3 EGFR Wild-type): 266 nM | GI50 [2]: 83 nM | GI50 [3]: 23 nM | GI50 [4]: 31 nM | GI50 [5]: 28 nM

COc1cc(N2CCC(N3CCOCC3)CC2)c(C)cc1Nc1ncc(Cl)c(Nc2ccc3nccnc3c2NS(C)(=O)=O)n1 [Example A31, N-(6-((5-chloro-2-((2-methoxy-5-methyl-4-(4-morpholinopiperidin-1-yl)phenyl)amino)pyrimidin-4-yl)amino)quinoxalin-5-yl)methanesulfonamide]
GI50 [1]: 131 nM | GI50 (Ba/F3 EGFR Wild-type): 223 nM | GI50 [2]: 79 nM | GI50 [3]: 43 nM | GI50 [4]: 39 nM | GI50 [5]: 50 nM

CCCc1cc(Nc2ncc(F)c(Nc3ccc4nccnc4c3NS(C)(=O)=O)n2)c(OC)cc1N1CCC(N2CCN(C)CC2)CC1 [Example A32, N-(6-((5-fluoro-2-((2-methoxy-4-(4-(4-methylpiperazin-1-yl)piperidin-1-yl)-5-propylphenyl)amino)pyrimidin-4-yl)amino)quinoxalin-5-yl)methanesulfonamide]
GI50 [1]: 91 nM | GI50 (Ba/F3 EGFR Wild-type): 603 nM | GI50 [2]: 51 nM | GI50 [3]: 229 nM | GI50 [4]: 27 nM | GI50 [5]: 11 nM

CCc1cc(Nc2ncc(Br)c(Nc3ccc4nccnc4c3NS(C)(=O)=O)n2)c(OC)cc1N1CCC(N2CCCC2)CC1 [Example A33, N-(6-((5-bromo-2-((5-ethyl-2-methoxy-4-(4-(pyrrolidin-1-yl)piperidin-1-yl)phenyl)amino)pyrimidin-4-yl)amino)quinoxalin-5-yl)methanesulfonamide]
GI50 [1]: 6 nM | GI50 (Ba/F3 EGFR Wild-type): > 2000 nM | GI50 [2]: 57 nM | GI50 [3]: 18 nM | GI50 [4]: 8 nM | GI50 [5]: 4 nM

CCc1cc(Nc2ncc(Cl)c(Nc3ccc4nccnc4c3NS(C)(=O)=O)n2)c(OC)cc1N1CCC(N2CCCC2)CC1 [Example A34, N-(6-((5-chloro-2-((5-ethyl-2-methoxy-4-(4-(pyrrolidin-1-yl)piperidin-1-yl)phenyl)amino)pyrimidin-4-yl)amino)quinoxalin-5-yl)methanesulfonamide]
GI50 [1]: 4 nM | GI50 (Ba/F3 EGFR Wild-type): > 2000 nM | GI50 [2]: 16 nM | GI50 [3]: 13 nM | GI50 [4]: 5 nM | GI50 [5]: 1 nM

COc1cc(N2CC[C@H](N3CCN(C)CC3)[C@H](F)C2)ccc1Nc1ncc(Cl)c(Nc2ccc3nccnc3c2NS(C)(=O)=O)n1 [Example A35, N-(6-((5-chloro-2-((4-((3R,4S)-3-fluoro-4-(4-methylpiperazin-1-yl)piperidin-1-yl)-2-methoxyphenyl)amino)pyrimidin-4-yl)amino)quinoxalin-5-yl)methane sulfonamide]
GI50 [1]: 272 nM | GI50 (Ba/F3 EGFR Wild-type): 576 nM | GI50 [2]: 335 nM | GI50 [3]: 659 nM | GI50 [4]: 219 nM | GI50 [5]: 145 nM

COc1cc(N2CCN([C@@H]3CCN(C)C[C@@H]3F)CC2)ccc1Nc1ncc(Cl)c(Nc2ccc3nccnc3c2NS(C)(=O)=O)n1 [Example A36, N-(6-((5-chloro-2-((4-(4-((3S,4R)-3-fluoro-1-methylpiperidin-4-yl)piperazin-1-yl)-2-methoxyphenyl)amino)pyrimidin-4-yl)amino)quinoxalin-5-yl)methane sulfonamide]
GI50 [1]: 241 nM | GI50 (Ba/F3 EGFR Wild-type): 657 nM | GI50 [2]: 267 nM | GI50 [3]: 485 nM | GI50 [4]: 73 nM | GI50 [5]: 111 nM

COc1cc(N2CCC(N3CCN(CC(F)F)CC3)CC2)ccc1Nc1ncc(Cl)c(Nc2ccc3nccnc3c2NS(C)(=O)=O)n1 [Example A37, N-(6-((5-chloro-2-((4-(4-(4-(2,2-difluoroethyl)piperazin-1-yl)piperidin-1-yl)-2-methoxyphenyl)amino)pyrimidin-4-yl)amino)quinoxalin-5-yl)methane sulfonamide]
GI50 [1]: 205 nM | GI50 (Ba/F3 EGFR Wild-type): 734 nM | GI50 [2]: 451 nM | GI50 [3]: 640 nM | GI50 [4]: 174 nM | GI50 [5]: 126 nM

CCc1cc(Nc2ncc(Br)c(Nc3ccc4nccnc4c3N(C)S(C)(=O)=O)n2)c(OC)cc1N1CCC(N2CCOCC2)CC1 [Example A39, N-(6-((5-bromo-2-((5-ethyl-2-methoxy-4-(4-morpholinopiperidin-1-yl)phenyl)amino)pyrimidin-4-yl)amino)quinoxalin-5-yl)-N-methylmethanesulfonamide]
GI50 [1]: 8 nM | GI50 (Ba/F3 EGFR Wild-type): 779 nM | GI50 [2]: 61 nM | GI50 [3]: 35 nM | GI50 [4]: 4 nM | GI50 [5]: 8 nM

CCc1cc(Nc2ncc(Cl)c(Nc3ccc4nccnc4c3N(C)S(C)(=O)=O)n2)c(OC)cc1N1CCC(N2CCOCC2)CC1 [Example A40, N-(6-((5-chloro-2-((5-ethyl-2-methoxy-4-(4-morpholinopiperidin-1-yl)phenyl)amino)pyrimidin-4-yl)amino)quinoxalin-5-yl)-N-methylmethanesulfonamide]
GI50 [1]: 12 nM | GI50 (Ba/F3 EGFR Wild-type): 845 nM | GI50 [2]: 50 nM | GI50 [3]: 94 nM | GI50 [4]: 10 nM | GI50 [5]: 10 nM

CCCc1cc(Nc2ncc(Cl)c(Nc3ccc4nccnc4c3N(C)S(C)(=O)=O)n2)c(OC)cc1N1CCC(N2CCOCC2)CC1 [Example A41, N-(6-((5-chloro-2-((2-methoxy-4-(4-morpholinopiperidin-1-yl)-5-propylphenyl)amino)pyrimidin-4-yl)amino)quinoxalin-5-yl)-N-methylmethanesulfonamide]
GI50 [1]: 28 nM | GI50 (Ba/F3 EGFR Wild-type): > 2000 nM | GI50 [2]: 210 nM | GI50 [3]: 258 nM | GI50 [4]: 44 nM | GI50 [5]: 8 nM

CCCc1cc(Nc2ncc(Cl)c(Nc3ccc4nccnc4c3N(C)S(C)(=O)=O)n2)c(OC)cc1N1CCC(N2CCCC2)CC1 [Example A42, N-(6-((5-chloro-2-((2-methoxy-5-propyl-4-(4-(pyrrolidin-1-yl)piperidin-1-yl)phenyl)amino)pyrimidin-4-yl)amino)quinoxalin-5-yl)-N-methylmethanesulfonamide]
GI50 [1]: 7 nM | GI50 (Ba/F3 EGFR Wild-type): 1860 nM | GI50 [2]: 80 nM | GI50 [3]: 117 nM | GI50 [4]: 33 nM | GI50 [5]: 2 nM

CCc1cc(Nc2ncc(Cl)c(Nc3ccc4nccnc4c3N(C)S(C)(=O)=O)n2)c(OC)cc1N1CCC(N2CCCC2)CC1 [Example A43, N-(6-((5-chloro-2-((5-ethyl-2-methoxy-4-(4-(pyrrolidin-1-yl)piperidin-1-yl)phenyl)amino)pyrimidin-4-yl)amino)quinoxalin-5-yl)-N-methylmethanesulfonamide]
GI50 [1]: 5 nM | GI50 (Ba/F3 EGFR Wild-type): 507 nM | GI50 [2]: 28 nM | GI50 [3]: 35 nM | GI50 [4]: 8 nM | GI50 [5]: 6 nM

CCc1cc(Nc2ncc(Br)c(Nc3ccc4nccnc4c3N(C)S(C)(=O)=O)n2)c(OC)cc1N1CCC(N2CCCCC2)CC1 [Example A44, N-(6-((2-((4-([1,4′-bipiperidin]-1′-yl)-5-ethyl-2-methoxyphenyl)amino)-5-bromopyrimidin-4-yl)amino)quinoxalin-5-yl)-N-methylmethanesulfonamide]
GI50 [1]: 10 nM | GI50 (Ba/F3 EGFR Wild-type): > 2000 nM | GI50 [2]: 94 nM | GI50 [3]: 38 nM | GI50 [4]: 12 nM | GI50 [5]: 6 nM
